These compounds were tested against T1, FXR ligand binding domain (Homo sapiens, UniProt Q96RI1) (assay: Radioligand binding assay (scintillation proximity radioligand displacement)).
T1 sequence (Q96RI1 211-483 limits assumed): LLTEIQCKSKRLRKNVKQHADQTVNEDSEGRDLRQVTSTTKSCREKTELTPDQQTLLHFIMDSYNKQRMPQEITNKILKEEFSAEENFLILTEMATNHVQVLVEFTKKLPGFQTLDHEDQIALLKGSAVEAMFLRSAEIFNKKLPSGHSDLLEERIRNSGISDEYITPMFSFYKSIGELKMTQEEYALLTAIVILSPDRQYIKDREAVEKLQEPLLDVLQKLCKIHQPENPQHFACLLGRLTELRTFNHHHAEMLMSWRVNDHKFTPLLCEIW
Protocol: Radioligand Binding Assay
Binding of test substances to the FXR ligand binding domain was assessed in a radioligand displacement assay. The assay was performed in a buffer consisting of 50 mM Hepes, pH 7.4, 10 mM NaCl, 5 mM MgCl2. […] All binding assays were performed in 96-well plates and the amount of bound ligand was measured on a Packard TopCount using OptiPlates (Packard). Dose response curves were performed within a range of concentration from 6×10^−9 M to 2.5×10^−5 M.

Row | Compound | IC50 [µM]
1 | N#Cc1ccc(OCC(c2c3c(nn2-c2ccc(Cl)cc2)CCCCC3)C2CCCCC2)c(F)c1 (stereo not drawn) [Example 14, 4-{2-[2-(4-Chloro-phenyl)-2,4,5,6,7,8-hexahydro-cycloheptapyrazol-3-yl]-2-cyclohexyl-ethoxy}-3-fluoro-benzonitrile] | 21.3
2 | O=C(O)c1ccc(SCC(c2c3c(nn2-c2ccc(Cl)cc2)CCC3)C2CCCCC2)cc1 (stereo not drawn) [Example 8, 4-{2-[2-(4-Chloro-phenyl)-2,4,5,6-tetrahydro-cyclopentapyrazol-3-yl]-2-cyclohexyl-ethylsulfanyl}-benzoic acid] | 1.1
3 | Fc1cc(-c2nnn[nH]2)ccc1OCC(c1c2c(nn1-c1ccc(Cl)cc1)CCCCC2)C1CCCCC1 (stereo not drawn) [Example 16, 2-(4-Chloro-phenyl)-3-{1-cyclohexyl-2-[2-fluoro-4-(1H-tetrazol-5-yl)-phenoxy]-ethyl}-2,4,5,6,7,8-hexahydro-cycloheptapyrazole] | 0.155
4 | O=C(O)c1ccc(NC(=O)C(c2c3c(nn2-c2ccc(Cl)cc2)CCCCC3)C2CCCCC2)c(F)c1 (stereo not drawn) [Example 13, 4-{2-[2-(4-Chloro-phenyl)-2,4,5,6,7,8-hexahydro-cycloheptapyrazol-3-yl]-2-cyclohexyl-acetylamino}-3-fluoro-benzoic acid] | 1.7
5 | O=C(O)c1ccc(OCC(c2c3c(nn2-c2ccc(Cl)cc2)CCC3)C2CCCCC2)nc1 (stereo not drawn) [Example 7, 6-{2-[2-(4-Chloro-phenyl)-2,4,5,6-tetrahydro-cyclopentapyrazol-3-yl]-2-cyclohexyl-ethoxy}-nicotinic acid] | 0.052
6 | Cc1cc(C(=O)O)cc(C)c1OCC(c1c2c(nn1-c1ccc(Cl)cc1)CCCCC2)C1CCCCC1 (stereo not drawn) [Example 15, 4-{2-[2-(4-Chloro-phenyl)-2,4,5,6,7,8-hexahydro-cycloheptapyrazol-3-yl]-2-cyclohexyl-ethoxy}-3,5-dimethyl-benzoic acid] | 0.53
7 | COC(=O)c1cc(C)c(OCC(c2c3c(nn2-c2ccc(Cl)cc2)CCC3)C2CCCCC2)c(C)c1 (stereo not drawn) [Example 1, 4-{2-[2-(4-Chloro-phenyl)-2,4,5,6-tetrahydro-cyclopentapyrazol-3-yl]-2-cyclohexyl-ethoxy}-3,5-dimethyl-benzoic acid methyl ester] | 28.7
8 | CC(C)(Oc1ccc(NC(=O)C(c2c3c(nn2-c2ccc(Cl)cc2)CCCCC3)C2CCCCC2)c(F)c1)C(=O)O (stereo not drawn) [Example 10, 2-(4-{2-[2-(4-Chloro-phenyl)-2,4,5,6,7,8-hexahydro-cycloheptapyrazol-3-yl]-2-cyclohexyl-acetylamino}-3-fluoro-phenoxy)-2-methyl-propionic acid] | 1.3
9 | CCOC(=O)C(C)(C)Oc1ccc(NC(=O)C(c2c3c(nn2-c2ccc(Cl)cc2)CCCCC3)C2CCCCC2)c(F)c1 (stereo not drawn) [Example 9, 2-(4-{2-[2-(4-Chloro-phenyl)-2,4,5,6,7,8-hexahydro-cycloheptapyrazol-3-yl]-2-cyclohexyl-acetylamino}-3-fluoro-phenoxy)-2-methyl-propionic acid ethyl ester] | 21.4
10 | O=C(NC1CCCCC1)C(c1c2c(nn1-c1ccc(Cl)cc1)CCCCC2)C1CCCCC1 (stereo not drawn) [Example 11, 2-[2-(4-Chloro-phenyl)-2,4,5,6,7,8-hexahydro-cycloheptapyrazol-3-yl]-2,N-dicyclohexyl-acetamide] | 2.4
11 | N#Cc1ccc(OCC(c2c3c(nn2-c2ccc(Cl)cc2)CCC3)C2CCCCC2)c(F)c1 (stereo not drawn) [Example 3, 4-{2-[2-(4-Chloro-phenyl)-2,4,5,6-tetrahydro-cyclopentapyrazol-3-yl]-2-cyclohexyl-ethoxy}-3-fluoro-benzonitrile] | 1.3
12 | O=C(NC1CCCCC1)C(c1c2c(nn1-c1ccc(Cl)cc1)CCC2)C1CCCCC1 (stereo not drawn) [Example 4, 2-[2-(4-Chloro-phenyl)-2,4,5,6-tetrahydro-cyclopentapyrazol-3-yl]-2,N-dicyclohexyl-acetamide] | 3.3
13 | Fc1cc(-c2nnn[nH]2)ccc1OCC(c1c2c(nn1-c1ccc(Cl)cc1)CCC2)C1CCCCC1 (stereo not drawn) [Example 5, 2-(4-Chloro-phenyl)-3-{1-cyclohexyl-2-[2-fluoro-4-(2H-tetrazol-5-yl)-phenoxy]-ethyl}-2,4,5,6-tetrahydro-cyclopentapyrazole] | 0.092
14 | O=C(O)c1ccc(NC(=O)C(c2c3c(nn2-c2ccc(Cl)cc2)CCC3)C2CCCCC2)c(F)c1 (stereo not drawn) [Example 6, 4-{2-[2-(4-Chloro-phenyl)-2,4,5,6-tetrahydro-cyclopentapyrazol-3-yl]-2-cyclohexyl-acetylamino}-3-fluoro-benzoic acid] | 0.603
15 | COC(=O)c1ccc(NC(=O)C(c2c3c(nn2-c2ccc(Cl)cc2)CCCCC3)C2CCCCC2)c(F)c1 (stereo not drawn) [Example 12, 4-{2-[2-(4-Chloro-phenyl)-2,4,5,6,7,8-hexahydro-cycloheptapyrazol-3-yl]-2-cyclohexyl-acetylamino}-3-fluoro-benzoic acid methyl ester] | 7

Reference: patent US8252826B2, “Cyclopentyl- and cycloheptylpyrazoles” (Hoffmann-La Roche Inc., priority 2010, dated 2012)
